Reference: patent publication US20100184815A1 (priority 2008, published 2010)
Where two headings read alike, the source gives them in different places.

Tests used:
Full Length hPPARα = target: T1, Full Length hPPARα (Homo sapiens, UniProt Q07869); assay: Full length hPPARα transfection assay; assay type: cell-based; conditions: full length receptor; read-out: Full Length hPPAR α EC50 (scaled number)
T1 construct: Full Length; expressed in transfected cells; host or cells: Cos cells
T1 sequence (Q07869 1-468): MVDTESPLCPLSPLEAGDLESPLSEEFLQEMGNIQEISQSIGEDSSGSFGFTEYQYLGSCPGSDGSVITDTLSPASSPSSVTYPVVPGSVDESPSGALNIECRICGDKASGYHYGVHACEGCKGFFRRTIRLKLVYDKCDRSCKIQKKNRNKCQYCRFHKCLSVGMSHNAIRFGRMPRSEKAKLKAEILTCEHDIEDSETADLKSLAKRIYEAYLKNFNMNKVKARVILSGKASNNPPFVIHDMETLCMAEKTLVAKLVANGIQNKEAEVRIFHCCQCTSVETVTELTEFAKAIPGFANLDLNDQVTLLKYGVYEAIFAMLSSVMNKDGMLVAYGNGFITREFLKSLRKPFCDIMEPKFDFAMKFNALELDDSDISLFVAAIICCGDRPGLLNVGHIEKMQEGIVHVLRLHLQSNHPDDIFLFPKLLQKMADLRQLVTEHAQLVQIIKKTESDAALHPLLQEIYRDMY
Protocol: Transient transfection assays. Cos cells were seeded in 60-mm dishes at a density of 5.5×10^5 cells/dish in Dulbecco's modified Eagle's medium (DMEM) supplemented with 10% fetal calf serum (FCS) and incubated at 37° C. for 24 hours before transfection. Cells were transfected in Opti-MEM (Gibco; Invitrogen, Carlsbad, Calif.) without FCS for 3 hours at 37° C., using polyethylenimine, with reporter and expression plasmids. The plasmid pBluescript (Stratagene, La Jolla, Calif.) was used as carrier DNA to set the final amount of DNA to 5.5 μg/dish. The pCMV-b-galactosidase expression plasmid was cotransfected as a control for transfection efficiency. Transfection was stopped by the addition of DMEM supplemented with 10% FCS, and cells were then incubated at 37° C. After 16 hours, cells were trypsinized and seeded in 96-well plates at the density of 2×10^4 cells/well and incubated for 6 hours in 10% FCS-containing DMEM. Cells were then incubated for 24 hours in DMEM containing 0.2% FCS and increasing concentrations of the compound tested or vehicle (DMSO). At the end of the experiment, cells were washed once with ice-cold PBS, lysed and the luciferase and b-galactosidase assays were performed in a luminometer and spectrophotomer. Transfection efficiencies were normalized with the b-galactosidase activity assay. Half-maximal effective concentration (EC50) was estimated using Prism software (GraphPad). All transfection experiments were performed at least three times.
In the following tables, proprietary compound EC50 values for hPPAR α, β, δ and γ are shown. The EC50 value is the concentration of a drug that induces a response halfway between the baseline and maximum, and is commonly used as a measure of drug potency. EC50 values are reported on a scale of 1 through 5, wherein the value scale is defined for each receptor as follows: […]

Gal-4 hPPARα = target: T2, Gal-4 hPPARα (Homo sapiens, UniProt Q07869); assay: Gal4-hPPARα transient transfection reporter assay in Cos cells; assay type: cell-based; conditions: luciferase reporter, 24 hours with compound, scale 1-5, read-out: Gal-4 hPPAR α EC50 (scaled number)
T2 construct: Plasmids pGal4-hPPARα, pGal4-hPPARγ, pGal4-hPPARδ and pG5-TK-pGL3 were constructed as previously described by Staels, Bart, et al., Nature 1998 Jun; 25
T2 sequence (Q07869 200-468 limits assumed): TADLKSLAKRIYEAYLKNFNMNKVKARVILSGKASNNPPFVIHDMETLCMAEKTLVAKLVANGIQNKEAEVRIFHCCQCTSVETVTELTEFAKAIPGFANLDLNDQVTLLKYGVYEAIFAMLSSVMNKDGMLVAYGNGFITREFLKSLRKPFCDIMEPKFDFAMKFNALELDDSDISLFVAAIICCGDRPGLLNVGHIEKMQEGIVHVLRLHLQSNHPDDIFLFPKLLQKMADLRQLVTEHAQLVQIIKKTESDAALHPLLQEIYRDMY
In short: (§1)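 Cos cells transiently co-transfected with Gal4-hPPAR expression plasmid, pG5-TK-pGL3 luciferase reporter and β-galactosidase control, then treated 24 h with increasing compound concentrations in DMEM containing 0.2% FCS. Luciferase normalised to β-galactosidase; EC50 from curve fit, at least three experiments.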

Gal-4 hPPARγ = target: T3, Gal-4 hPPARγ (Homo sapiens, UniProt P37231); assay: Gal4-hPPARγ transient transfection reporter assay in Cos cells; assay type: cell-based; conditions: luciferase reporter, 24 hours with compound, scale 1-5, read-out: Gal-4 hPPAR γ EC50 (scaled number)
T3 construct: Plasmids pGal4-hPPARα, pGal4-hPPARγ, pGal4-hPPARδ and pG5-TK-pGL3 were constructed as previously described by Staels, Bart, et al., Nature 1998 Jun; 25
T3 sequence (P37231 238-505 limits assumed): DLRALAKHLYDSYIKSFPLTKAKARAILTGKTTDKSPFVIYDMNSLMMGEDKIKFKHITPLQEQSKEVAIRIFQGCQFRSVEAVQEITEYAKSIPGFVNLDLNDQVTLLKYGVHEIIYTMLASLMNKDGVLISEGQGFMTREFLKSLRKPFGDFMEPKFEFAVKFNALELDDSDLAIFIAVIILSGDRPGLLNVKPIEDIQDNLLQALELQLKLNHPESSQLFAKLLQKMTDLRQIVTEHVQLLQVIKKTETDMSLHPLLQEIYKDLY
In short: as §1

Gal-4 hPPARβ/δ = target: T4, Gal-4 hPPARβ/δ (Homo sapiens, UniProt Q03181); assay: Gal4-hPPARδ transient transfection reporter assay in Cos cells; assay type: cell-based; conditions: luciferase reporter, 24 hours with compound, scale 1-5, read-out: Gal-4 hPPAR β/δ EC50 (scaled number)
T4 construct: Plasmids pGal4-hPPARα, pGal4-hPPARγ, pGal4-hPPARδ and pG5-TK-pGL3 were constructed as previously described by Staels, Bart, et al., Nature 1998 Jun; 25
T4 sequence (Q03181 171-441 limits assumed): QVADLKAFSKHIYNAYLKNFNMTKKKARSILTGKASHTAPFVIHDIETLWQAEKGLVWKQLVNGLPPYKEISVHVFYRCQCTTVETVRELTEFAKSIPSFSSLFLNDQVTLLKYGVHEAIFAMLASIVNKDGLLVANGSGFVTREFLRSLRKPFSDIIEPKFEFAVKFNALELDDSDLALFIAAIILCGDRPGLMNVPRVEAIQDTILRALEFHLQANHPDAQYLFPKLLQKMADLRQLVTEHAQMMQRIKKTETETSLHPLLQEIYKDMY
In short: as §1

[1] = Metabolism studies using human liver microsomal preparations; assay type: in vitro ADME; conditions: pooled human liver microsomes, with NADPH (CYP system active), 37° C.
Protocol: Compounds were incubated in pooled human liver microsomes (HLMs) in the presence or absence of an NADPH-generating system. NADPH is required for the activity of cytochrome P450 (CYP) and other oxidative enzymes present in HLMs, but not for esterase activity. An additional incubation was carried out in the absence of HLM to assess compound stability. The disappearance of parent and the appearance of the corresponding acid metabolite were monitored over the time course of the incubations using LC-MS/MS.
A stock solution (20 mM) of each proprietary compound in DMSO was prepared and store at −20° C. until needed. A working stock solution (0.2 mM) was prepared for each proprietary compound by adding an aliquot of the stock solution (10 μL) to acetonitrile (990 μL).
An aliquot of the HLM solution was removed from the −80° C. freezer and placed on ice. Tris Buffer (50 mM, pH 7.4) containing MgCl2 (hexahydrate, 5 mM) was pre-incubated in a 37° C. water bath. A set of Eppendorf microfuge tubes (1.5 mL) was appropriately labeled. To each tube was added Tris buffer with or without the NADPH generating system. An aliquot of pooled HLMs was added to all the incubations except those that were the buffer control.
Tubes were preincubated for 5 min in a shaking incubator bath (37° C., 900 rpm) and the reaction was initiated by adding an aliquot of the proprietary working solution (5 μL). The additions were timed carefully in order to coordinate the sample collections below. A small aliquot (50 μL) was removed at […] and delivered to the respective tubes containing dextrorphan (100 μL of 0.5 μg/mL solution) in dissolved in methanol or acetonitrile. The samples were centrifuged at 14000 g for 15 minutes at 4° C. The supernatant was transferred to clean labeled HPLC injection vials and stored at −80° C. until analyzed. An aliquot of the supernatant […] was added to water (75 μL), mixed and injected onto the LC-MS/MS system for analysis.
“HLM t1/2” represents the observed half life of the compound under conditions that included NADPH, i.e., the CYP system was active. Comparison to the half life of the test article under (−)NADPH conditions, the enzyme predominant ly responsible for the metabolism of the test article. […] Where roughly equal metabolism is seen by each enzyme system, “mixed” is noted in the “Predominant enzyme” column.

pig liver esterase = assay: Metabolism studies using pig liver esterase; assay type: in vitro ADME; conditions: 37° C.
Protocol: The esterase-mediated metabolism of these compounds was studied using commercially available pig liver esterase in the presence and absence of human plasma proteins. The disappearance of parent was monitored over the time course of the incubations using a LC-UV detection system.
A stock solution and working stock solution was prepared for each proprietary compound as described for the human liver microsomal incubations. Working solutions of pig liver esterase in potassium phosphate buffer ([…], pH 7.4) and pig liver esterase in human plasma protein were prepared by dissolving pig liver esterase (2.51 mg) in the phosphate buffer or plasma protein solutions, respectively.
A set of three Eppendorf microfuge tubes (1.5 mL) was appropriately labeled. To each tube was added 1.5 mL of phosphate buffer, pig liver esterase in buffer, or pig liver esterase in human plasma protein solution. These solutions were pre-incubated (37° C., 900 rpm) and the reactions were initiated by adding an aliquot (37.5 μL) of the working solution of proprietary compound to each tube. An aliquot (100 μL) from each tube was removed at time 0, 5, 30, 60, and 120 min and added to a tube containing acetonitrile (200 μL) to stop the reaction.
The samples were centrifuged at 14000 g for 15 minutes at 4° C. The supernatant was transferred to clean labeled HPLC injection vials and stored at −80° C. until analyzed. An aliquot of the supernatant (25 μL) was injected onto the LC-UV system for analysis.
Half lives of a sample of test articles is noted in the following table. Half life was determined in the presence or absence of plasma.

[2] = pig liver esterase in human plasma protein solution, read-out: Pig Liver Esterase (t1/2 min.) (+) Plasma
[3] = pig liver esterase in phosphate buffer pH 7.4, no plasma, read-out: Pig Liver Esterase (t1/2 min.) (−) Plasma

SMILES	EC50 (Full Length hPPARα)	EC50 (Gal-4 hPPARα)	EC50 (Gal-4 hPPARγ)	EC50 (Gal-4 hPPARβ/δ)	HLMs t1/2 (min) [1]	half-life at 4.9 µM (pig liver esterase; [2])	half-life at 4.9 µM (pig liver esterase; [3])
Cn1nc(-c2ccccc2)cc1COC(=O)c1ccc(OC(C)(C)C(=O)O)cc1 [Compound 2, 2-methyl-2-(4-(((1-methyl-3-phenyl-1H-pyrazol-5-yl)methoxy)carbonyl)phenoxy)propanoic acid]	1 to 50 nM	201 to 999 nM	> 1000 nM	> 1000 nM			
COc1ccc(Cn2cc(COC(=O)c3ccc(SC(C)(C)C(=O)O)cc3)nn2)cc1 [Compound 68, 2-(4-(((1-(4-methoxybenzyl)-1H-1,2,3-triazol-4-yl)methoxy)carbonyl)phenylthio)-2-methylpropanoic acid]	51 to 200 nM	51 to 200 nM	> 1000 nM	> 1000 nM			
Cc1ccc(Cn2cc(C(C)OC(=O)c3ccc(SC(C)(C)C(=O)O)cc3)nn2)cc1 (stereo not drawn) [Compound 81, 2-methyl-2-(4-((1-(1-(4-methylbenzyl)-1H-1,2,3-triazol-4-yl)ethoxy)carbonyl)phenylthio)propanoic acid]	< 1 nM	1 to 50 nM	> 1000 nM	> 1000 nM			
CC(C)(Sc1ccc(C(=O)OCCn2cc(-c3ccc(C(C)(C)C)cc3)nn2)cc1)C(=O)O [Compound 89, 2-(4-((2-(4-(4-tert-butylphenyl)-1H-1,2,3-triazol-1-yl)ethoxy)carbonyl)phenylthio)-2-methylpropanoic acid]	1 to 50 nM	51 to 200 nM	> 1000 nM	> 1000 nM			
Cc1ccc(Cn2nncc2COC(=O)c2ccc(SC(C)(C)C(=O)O)cc2)cc1 [Compound 62, 2-methyl-2-(4-(((1-(4-methylbenzyl)-1H-1,2,3-triazol-5-yl)methoxy)carbonyl)phenylthio)propanoic acid]	51 to 200 nM	51 to 200 nM	> 1000 nM	> 1000 nM			

More lines, now with the values ahead:

EC50 (Full Length hPPARα)	EC50 (Gal-4 hPPARα)	EC50 (Gal-4 hPPARγ)	EC50 (Gal-4 hPPARβ/δ)	HLMs t1/2 (min) [1]	half-life at 4.9 µM (pig liver esterase; [2])	half-life at 4.9 µM (pig liver esterase; [3])	SMILES
< 1 nM	201 to 999 nM	> 1000 nM	> 1000 nM				CCCn1c(COC(=O)c2ccc(OC(C)(C)C(=O)O)c(OC)c2)nn(Cc2ccc(C(C)(C)C)cc2)c1=O [Compound 180, 2-(4-(((1-(4-tert-butylbenzyl)-5-oxo-4-propyl-4,5-dihydro-1H-1,2,4-triazol-3-yl)methoxy)carbonyl)-2-methoxyphenoxy)-2-methylpropanoic acid]
	1 to 50 nM	> 1000 nM	> 1000 nM	Stable	> 2 h	> 2 h	CCCn1c([C@@H](C)OC(=O)c2ccc(SC(C)(C)C(=O)O)cc2)nn(Cc2ccc(C)cc2)c1=O [Compound 249, 4-(1-Carboxy-1-methyl-ethylsulfanyl)-benzoic acid (R)-1-[1-(4-methyl-benzyl)-5-oxo-4-propyl-4,5-dihydro-1H-1,2,4-triazol-3-yl]-ethyl ester]
	51 to 200 nM	> 1000 nM	> 1000 nM	Stable	> 2 h	> 2 h	CCCn1c([C@H](C)OC(=O)c2ccc(SC(C)(C)C(=O)O)cc2)nn(Cc2ccc(C)cc2)c1=O [Compound 248, 4-(1-Carboxy-1-methyl-ethylsulfanyl)-benzoic acid (S)-1-[1-(4-methyl-benzyl)-5-oxo-4-propyl-4,5-dihydro-1H-1,2,4-triazol-3-yl]-ethyl ester]
